“Also recorded” adds a separate entry of the source.
What was measured:
[1] = system: CGI- gene expression; assay: CGI- gene expression upon treatment with BET inhibitors other than JQ1 in cell lines/tissues (FIG. 14); assay type: cell-based; conditions: indicated cell lines/tissues, concentrations, durations, vs untreated controls
From the text: Moreover, the cell line or tissue used in the BET inhibitor treatment, as well as treatment duration and concentration were also provided.

[2] = cited from earlier work
[3] = system: CGI- genes / CGI+ genes; assay: Gene expression changes upon JQ1 treatment versus untreated controls (FIGS. 12A-12C); assay type: cell-based
From the text: (§1) FIG. 12 illustrates JQ1 treatment suppresses CGI- gene misexpression. FIGS. 12A-12B show gene expression changes upon JQ1 treatment. […] All data are from the comparison of JQ1 treated with untreated controls for CGI+ genes (upper) and CGI- genes (lower) for each cell type. TAC: transverse aortic constriction. […] Representative data from three blind tests with similar results are shown. The control (Con) curve is to the left of the JQ1 treatment curve from 12-19 days post treatment.
BET family proteins (e.g., BRD2/4) are also components of local enhancer mediated transcriptional activation (FIG. 11A).
(§2) The effects of JQ1 on C. elegans lifespan was also tested. […] Treatment with BET inhibitors can suppress misexpression of CGI- genes during aging, and that this, in turn, will delay age-associated degenerative changes in mice.

[4] = system: C. elegans; assay: C. elegans lifespan after one-time JQ1 treatment (FIG. 12D); assay type: in vivo; conditions: representative of three blind tests
From the text: as §1, §2

[5] = system: CGI- gene expression; assay: JQ1 in vivo treatment of mice, published RNA-seq data, CGI- gene expression (FIG. 13); conditions: intraperitoneal injections of 50 mg/kg/day, vs untreated controls
Description: FIG. 13 illustrates JQ1 in vivo treatment data based on published RNA-seq data generated from mice by intraperitoneal injections of 50 mg/kg/day as indicated. All data are from the comparison with untreated controls for CGI+ genes (upper) and CGI- genes (lower) for each of *p < 0.05; **p < 0.01, ***p< 0.001. Sham operation; transverse aortic constriction (TAC); myocardial infarction (MI).
All of the data were based on published RNA-seq data and compared to untreated controls for CGI+ and CGI- genes.

[6] = system: BET; conditions: cited from earlier work

Row | Structure (SMILES) | CGI- gene expression upon BET inhibitors other than JQ1 [1] | other results
1 | CCS(=O)(=O)Nc1ccc(Oc2ccc(F)cc2F)c(-c2cn(C)c(=O)c3[nH]ccc23)c1 [ABBV-075, N-(4-(2,4-difluorophenoxy)-3-(6-methyl-7-oxo-6,7-dihydro-1H-pyrrolo[2,3-c]pyridin-4-yl)phenyl)ethanesulfonamide] | suppress Cytosine-phosphate-Guanine (CpG) island negative genes | 
2 | CCNC(=O)c1cc2c(-c3cc(C(C)(C)O)ccc3Oc3c(C)cc(F)cc3C)cn(C)c(=O)c2[nH]1 [ABBV-744, N-ethyl-4-(2-(4-fluoro-2,6-dimethylphenoxy)-5-(2-hydroxypropan-2-yl)phenyl)-6-methyl-7-oxo-6,7-dihydro-1H-pyrrolo[2,3-c]pyridine-2-carboxamide] | suppress Cytosine-phosphate-Guanine (CpG) island negative genes | 
3 | Cc1sc2c(c1C)C(c1ccc(Cl)cc1)=N[C@@H](CC(=O)Nc1ccc(OCCOCCOCCOCCNc3cccc4c3C(=O)N(C3CCC(=O)NC3=O)C4=O)cc1)c1nnc(C)n1-2 (stereo partly drawn) [ARV-825, 2-((S)-4-(4-chlorophenyl)-2,3,9-trimethyl-6H-thieno[3,2-f][1,2,4]triazolo [4,3-a][1,4]diazepin-6-yl)-N-(4-(2-(2-(2-(2-((2-(2,6-dioxopiperidin-3-yl)-1,3-dioxoisoindolin-4-yl)amino)ethoxy)ethoxy)ethoxy)ethoxy)phenyl)acetamide] | suppress Cytosine-phosphate-Guanine (CpG) island negative genes | 
4 | COc1nnc2ccc(N3CCC(c4ccc(OCCN5CCN(C)C(=O)[C@H]5C)cc4)CC3)nn12 [AZD 5153, (R)-4-(2-(4-(1-(3-methoxy-[1,2,4]triazolo[4,3-b]pyridazin-6-yl)piperidin-4-yl)phenoxy)ethyl)-1,3-dimethylpiperazin-2-one] | suppress Cytosine-phosphate-Guanine (CpG) island negative genes | 
5 | Cc1sc2c(c1C)C(c1ccc(Cl)cc1)=N[C@@H](CC(N)=O)c1nnc(C)n1-2 [CPI-203, (S)-2-(4-(4-chlorophenyl)-2,3,9-trimethyl-6H-thieno[3,2-f][1,2,4]triazolo [4,3-a][1,4]diazepin-6-yl)acetamide] | suppress Cytosine-phosphate-Guanine (CpG) island negative genes | 
6 | COc1cc2c(cc1-c1c(C)noc1C)ncc1[nH]c(=O)n([C@H](C)c3ccccn3)c12 [I-BET 151, (R)-7-(3,5-dimethylisoxazol-4-yl)-8-methoxy-1-(1-(pyridin-2-yl)ethyl)-1,3-dihydro-2H-imidazo[4,5-c]quinolin-2-one] | suppress Cytosine-phosphate-Guanine (CpG) island negative genes | 
7 | Cc1sc2c(c1C)C(c1ccc(Cl)cc1)=N[C@@H](CC(=O)OC(C)(C)C)c1nnc(C)n1-2 [JQ1, tert-butyl (S)-2-(4-(4-chlorophenyl)-2,3,9-trimethyl-6H-thieno[3,2-f][1,2,4]triazolo[4,3-a][1,4]diazepin-6-yl)acetate] |  | safety for humans [2]: safe for humans; overlap of CGI- genes downregulated by JQ1 with CGI- genes upregulated during aging or upon nuclear architecture disruption ([3]; FIG. 12C): largely overlapped; CGI- gene expression upon JQ1 treatment ([3]; JQ1 treated vs untreated controls, each cell type, FIGS. 12A-12B): global downregulation of CGI- gene expression; also recorded: suppresses CGI- gene expression; CGI+ gene expression upon JQ1 treatment ([3]; JQ1 treated vs untreated controls, FIGS. 12A-12B): not significantly affected; median lifespan of adult C. elegans [4]: significantly extended the median lifespan; also recorded: lifespan extension; CGI- gene expression in mice [5]: suppression of CGI- gene expression
8 | COC(=O)C[C@@H]1N=C(c2ccc(Cl)cc2)c2c(sc(C)c2C)-n2c(C)nnc21 [MS417, methyl (S)-2-(4-(4-chlorophenyl)-2,3,9-trimethyl-6H-thieno[3,2-f][1,2,4]triazolo[4,3-a][1,4]diazepin-6-yl)acetate] | suppress Cytosine-phosphate-Guanine (CpG) island negative genes | 
9 | Cc1sc2c(c1C)C(c1ccc(Cl)cc1)=N[C@@H](CC(=O)NCCCCCCCCCCNC(=O)C[C@@H]1N=C(c3ccc(Cl)cc3)c3c(sc(C)c3C)-n3c(C)nnc31)c1nnc(C)n1-2 [MS645, (S)-N,N′-(decane-1,10-diyl)bis(2-((6S)-4-(4-chlorophenyl)-2,3,9-trimethyl-6H-thieno[3,2-f] [1,2,4]triazolo[4,3-a][1,4]diazepin-6-yl)acetamide)] | suppress Cytosine-phosphate-Guanine (CpG) island negative genes | 
10 | Cc1noc(C)c1-c1cnc2c(-c3ccc(C(=O)O)cc3)cn([C@@H](C)c3ccccn3)c2c1 [PLX51107, (S)-4-(6-(3,5-dimethylisoxazol-4-yl)-1-(1-(pyridin-2-yl)ethyl)-1H-pyrrolo[3,2-b]pyridin-3-yl)benzoic acid] | suppress Cytosine-phosphate-Guanine (CpG) island negative genes | 
11 | COc1cc(-c2cn(C)c(=O)c3cnccc23)cc(OC)c1CN(C)CC(=O)NCCOCCOCCNc1cccc2c1C(=O)N(C1CCC(=O)NC1=O)C2=O.Cl.Cl (centres unmarked) [dBRD9, 2-[[[4-(1,2-Dihydro-2-methyl-1-oxo-2,7-naphthyridin-4-yl)-2-6-dimethoxyphenyl]methyl]methylamino]-N-[2-[2-[2-[[2-(2,6-dioxo-3-piperidinyl)-2,3-dihydro-1,3-dioxo-1H-isoindol-4-yl]amino]ethoxy]ethoxy]ethyl] acetamide dihydrochloride] | suppress Cytosine-phosphate-Guanine (CpG) island negative genes | 
12 | Oc1ccc(C=Cc2cc(O)cc(O)c2)cc1 [resveratrol] |  | pan-BET inhibitor activity [6]: pan-BET inhibitor activity
